Data from paper PMC8421526, “Cell-Penetrating Peptides Predicted From CASC3, AKIP1, and AHRR Proteins” (Frontiers in Pharmacology, 2021).
Entries after “also recorded” stand apart in the source; their conditions may differ. Where two headings read alike, the source gives them in different places.

What was measured:
HeLa cells = assay: Internalization of fluorescently labelled peptide, confocal microscopy of live cells; type: cell-based, human; conditions: 4 h; for Fluorescence signal from the peptide in confocal images: fluorescently labelled peptide 10 µM, Hoechst counterstain, 20x; for Entry into cells in confocal images: fluorescently labelled peptide 20 µM, Supplementary Figure S2
Procedure: 48 h prior to the addition of […], 20,000 HeLa cells were seeded on 8-well Nunc™ Lab-Tek™ (Thermo Scientific™, United States) chamber plates. Before the addition of the peptide solutions media was changed to 225 µl of fresh media. […] After 4 h incubation, the cells were washed with PBS and counterstained with Hoechst 33342. Confocal images were acquired from live cells with Zeiss LSM710 (Carl Zeiss AG, Germany). For detecting the fluorescent label from the peptide, 488 nm laser with […] was used, and for detecting nuclei 405 nm laser with 416–503 filter was used. The images were taken with 20x magnification.

U87 cells [1] = conditions: for 2-Way ANOVA, MTS assay, treatment group compared to untreated: Table S4 C; for Proliferation in MTS assay compared to the CPP Tat treated group: same concentration of Tat, statistically significant
Procedure: (§1) The cell proliferation was analyzed with the CellTiter 96® Aqueous Non-Radioactive Cell Proliferation Assay (MTS) (Promega Biotech AB, Sweden) according to the manufacturer’s instructions. For this, 10,000 U87 or CHO cells were seeded 1 day prior to the experiment on transparent 96-well plates. On the experiment day, media was replaced with 90 μl of fresh serum free media. Peptides in the concentration range from 0 to 32 µM were added to the cells. The cells were incubated with the peptides for 20 h or 46 h, following the addition of the reagent and further incubation to reach 24 h or 48 h timepoints. The absorbance of the formazan product was measured at 490 nm with Tecan Sunrise microplate absorbance reader (Tecan Group Ltd., Switzerland) and the percentage of viable cells was calculated using the GraphPad Prism software 5.0 (GraphPad Software, CA, United States).

U87, PC3, and HeLa cells [2] = assay: Percentage of fluorescent cells after peptide treatment, flow cytometry; type: cell-based, human; conditions: FAM-labelled peptide 10 µM, 2 h, serum free media, trypan blue quenching, Figure 1B; for Percentage of the fluorescent positive cells: threshold set with untreated cells
Procedure: U87 (human glioblastoma like cells) and HeLa (human cervical cancer) were maintained at 37°C and 5% CO2 in Dulbecco’s Modified Eagle’s Medium (DMEM) (Sigma, Germany). PC3 (human prostate cancer) and CHO cells were maintained in Ham´S F12 media and incubated at 37°C and 5% CO2. Cell media were supplemented with 0.1 mM non-essential amino acids, 1.0 mM sodium pyruvate, 10% fetal bovine serum (FBS) (Sigma, Germany), 100°U ml^−1 penicillin, and […] streptomycin (Invitrogen, Sweden). U87 cell dishes were treated with 0.1% gelatin solution prior to addition of cells and media. The percentage of the fluorescent cells after peptide treatment was assessed using flow cytometry. For flow cytometry, 10,000 cells were seeded on a 96-well plate 1 day prior to the experiment. On the experiment day, the cell media was changed to 90 µl of fresh serum free media followed by the addition of 10 µl of the fluorescently labelled peptide solution. The peptide’s final concentration on the cells was 10 µM. The cells were incubated with the peptides for 2 h, following washes with PBS buffer. 0.25% Trypsin-EDTA was added to detach the cells from the plate and 200 µl of PBS mixed with 1% FBS was added. Shortly before the analysis, 50 µl of 0.4% trypan blue was added to quench the fluorescence outside the cells. The fluorescence detected from the untreated cells was used to set the signal threshold. The results are shown as the percentage of the fluorescent positive cells.

U87, PC3, and HeLa cells [3] = assay: Internalization of FAM-labelled peptides, fluorescence from cell lysate; type: cell-based, human; conditions: FAM-labelled peptide 10 µM, 2 h, serum free media, lysis 0.1% Triton X100; cannot distinguish internalized from membrane-attached peptide; Figure 1A
Procedure: U87 (human glioblastoma like cells) and HeLa (human cervical cancer) were maintained at 37°C and 5% CO2 in Dulbecco’s Modified Eagle’s Medium (DMEM) (Sigma, Germany). PC3 (human prostate cancer) and CHO cells were maintained in Ham´S F12 media and incubated at 37°C and 5% CO2. Cell media were supplemented with 0.1 mM non-essential amino acids, 1.0 mM sodium pyruvate, 10% fetal bovine serum (FBS) (Sigma, Germany), 100°U ml^−1 penicillin, and […] streptomycin (Invitrogen, Sweden). U87 cell dishes were treated with 0.1% gelatin solution prior to addition of cells and media. For assessing the internalization of the peptides from the cell lysate, 50,000 cells were seeded on a 24-well plate 1 day prior to the experiment. On the experiment day, cell media was changed to 450 µl of fresh serum free media followed by the addition of 50 µl of fluorescently labelled peptide solution. The peptide’s final concentration on the cells was 10 µM. The cells were incubated with the peptides for 2 h, following washes with PBS buffer and cell lysis with 100 µl of 0.1% Triton X100. The cell lysate was transferred to black 96-well plate and the fluorescence signal from the fluorescently labelled peptide was measured.

U87 cells [4] = assay: Total DNA from cell lysate (PicoGreen dsDNA assay); type: cell-based, human; conditions: 5 µM peptide, 48 h, normalized to untreated cells, average of three wells
Procedure: Total DNA was measured from U87 cells 48 h after the addition of the peptide solutions. After the incubation, the cells were washed with PBS and lysed as described above. From the cell lysate, DNA was quantified with Quant-iT™ PicoGreen™ dsDNA Assay Kit. The results are shown as the average of measurements from three wells and normalized to untreated cells.

CHO cells = conditions: serum free media, 8 and 32 µM, average of three independent wells
Procedure: as §1

[5] = Figure 3 24 h, peptide added 0.5 µM
[6] = Figure 3 24 h, peptide added 2 µM
[7] = Figure 3 24 h, peptide added 8 µM
[8] = Figure 3 24 h, peptide added 32 µM
[9] = Figure 3 48 h, peptide added 0.5 µM
[10] = Figure 3 48 h, peptide added 2 µM
[11] = Figure 3 48 h, peptide added 8 µM
[12] = Figure 3 48 h, peptide added 32 µM

Sequence	Fluorescence signal from the peptide in confocal images (HeLa cells)	2-Way ANOVA, MTS assay, treatment group compared to untreated (U87 cells [1]; [5])	2-Way ANOVA, MTS assay, treatment group compared to untreated (U87 cells [1]; [6])	2-Way ANOVA, MTS assay, treatment group compared to untreated (U87 cells [1]; [7])	2-Way ANOVA, MTS assay, treatment group compared to untreated (U87 cells [1]; [8])	2-Way ANOVA, MTS assay, treatment group compared to untreated (U87 cells [1]; [9])	2-Way ANOVA, MTS assay, treatment group compared to untreated (U87 cells [1]; [10])	2-Way ANOVA, MTS assay, treatment group compared to untreated (U87 cells [1]; [11])	2-Way ANOVA, MTS assay, treatment group compared to untreated (U87 cells [1]; [12])	Fluorescent signal in flow cytometry (detectable or not) (U87, PC3, and HeLa cells [2])	Fluorescence signal from the cell lysate (internalization) (U87, PC3, and HeLa cells [3])	Percentage of the fluorescent positive cells (U87, PC3, and HeLa cells [2])	also measured
GRKKRRQRRRPPQ [Tat48-60, reference compound]	fluorescence signal from the peptides can be seen in the cells	ns (P > 0.05 – ns)	ns (P > 0.05 – ns)	ns (P > 0.05 – ns)	* (p < 0.05 - *)	ns (P > 0.05 – ns)	ns (P > 0.05 – ns)	* (p < 0.05 - *)	*** (p < 0.001 - ***)				Entry into cells in confocal images (HeLa cells): able to enter into almost all the cells; Toxicity in MTS assay (U87 cells [1]; U87 cells, serum free media, 0-32 µM, after 24 or 48 h): did not show a considerable amount of toxicity
VAAKKRKKDML [FBXO32_59-69, predicted CPP from F-box only protein 32, C-terminally amidated]										all the peptides except the CCNL2, ING4, and FBXO32 derived peptides had a detectable signal			
RKRRESASSSSSVKKAKKP [DMAP1_459-467, predicted CPP from DNA methyltransferase 1-associated protein 1, C-terminally amidated]											above control		
VLERAKRRAV [AKIP1_27-37]	fluorescence signal from the peptides can be seen in the cells	ns (P > 0.05 – ns)	* (p < 0.05 - *)	* (p < 0.05 - *)	* (p < 0.05 - *)	ns (P > 0.05 – ns)	* (p < 0.05 - *)	* (p < 0.05 - *)	** (p < 0.01 - **)		highest fluorescence intensities	more than 10%	Amount of total DNA (U87 cells [4]): decreased amount of total DNA
GECTYAGRKRRRPLQK [AHRR8-24]	fluorescence signal from the peptides can be seen in the cells	ns (P > 0.05 – ns)	* (p < 0.05 - *)	* (p < 0.05 - *)	** (p < 0.01 - **)						highest fluorescence intensities	more than 10%	Proliferation in MTS assay compared to the CPP Tat treated group (U87 cells [1]; U87 cells, 0.5, 2, and 8 µM, 48 h): decrease in the proliferation; Viability in MTS assay (U87 cells [1]; U87 cells, serum free media, after 48 h): decreased viability
NTKRRLEGAKKA [CCNL2_354-365, predicted CPP from Cyclin L2, C-terminally amidated]										all the peptides except the CCNL2, ING4, and FBXO32 derived peptides had a detectable signal			
PDDIKPRRIRKPRY [CASC3_251-264]	fluorescence signal from the peptides can be seen in the cells; also recorded: strongest and well dispersed signal	** (p < 0.01 - **)	** (p < 0.01 - **)	*** (p < 0.001 - ***)	*** (p < 0.001 - ***)	* (p < 0.05 - *)	* (p < 0.05 - *)	* (p < 0.05 - *)	*** (p < 0.001 - ***)		highest fluorescence intensities	more than 10%	Entry into cells in confocal images (HeLa cells): able to enter into almost all the cells; Cell proliferation in MTS assay (CHO cells): proliferation decreased; Proliferation in MTS assay compared to the CPP Tat treated group (U87 cells [1]; U87 cells, 0.5 µM, 24 h): decrease in the proliferation; Cell proliferation in MTS assay (U87 cells [1]; U87 cells, serum free media, 8 and 32 µM): proliferation decreased
TQKEKKAARARSK [ING4_134-145]										all the peptides except the CCNL2, ING4, and FBXO32 derived peptides had a detectable signal			
